Patent US20100267561A1, “HERBICIDAL PYRIDAZINONE DERIVATIVES” (priority 2007, published 2010)

What was measured:
Assay type in all cases: in vivo
[1] = test system: barnyardgrass (Echinochloa crus-galli); assay: Test B flooded paddy test plant response
Summary of the method: (§1)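 Compounds were added directly to paddy water over 2-leaf-stage plants in pots flooded 3 cm above soil, water depth maintained. Visual injury scored against controls after 13 to 15 days in greenhouse, 0 (none) to 100 (complete control); dash indicates no result.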

[2] = test system: ducksalad (Heteranthera limosa); assay: Test B flooded paddy test plant response
Summary of the method: as §1

[3] = test system: rice (Oryza sativa); assay: Test B flooded paddy test plant response
Summary of the method: as §1

[4] = test system: umbrella sedge (Cyperus difformis); assay: Test B flooded paddy test plant response
Summary of the method: as §1

[5] = test system: common ragweed (Ambrosia elation); assay: Test B pre-/postemergence plant response; conditions: Preemergence; for Ragweed plant response rating: 8 g ai/ha
Summary of the method: (§2)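 Seeds were sown and sprayed preemergence, while plants at 2 to 18 cm (1- to 4-leaf stage) got postemergence sprays. Compounds were formulated in a non-phytotoxic solvent mixture with surfactant. After 13 to 15 days in a greenhouse, injury was rated visually against untreated controls, 0 (no effect) to 100 (complete control).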

[6] = test system: Italian ryegrass (Lolium multiflorum); assay: Test B pre-/postemergence plant response; conditions: Preemergence; for Ryegrass, Italian plant response rating: 8 g ai/ha
Summary of the method: as §2

[7] = test system: soybean (Glycine max); assay: Test B pre-/postemergence plant response; conditions: Preemergence; for Soybean plant response rating: 8 g ai/ha
Summary of the method: as §2

[8] = test system: large crabgrass (Digitaria sanguinalis); assay: Test B pre-/postemergence plant response; conditions: Preemergence; for Crabgrass, Large plant response rating: 8 g ai/ha
Summary of the method: as §2

[9] = test system: cocklebur (Xanthium strumarium); assay: Test B pre-/postemergence plant response; conditions: Preemergence; for Cocklebur plant response rating: 8 g ai/ha
Summary of the method: as §2

[10] = test system: velvetleaf (Abutilon theophrasti); assay: Test B pre-/postemergence plant response; conditions: Preemergence; for Velvetleaf plant response rating: 8 g ai/ha, scale 0 to 100
Summary of the method: as §2

[11] = test system: goosegrass (Eleusine indica); assay: Test B pre-/postemergence plant response; conditions: Preemergence; for Goosegrass plant response rating: 8 g ai/ha
Summary of the method: as §2

[12] = test system: Russian thistle (Salsola iberica); assay: Test B pre-/postemergence plant response; conditions: Preemergence; for Russian Thistle plant response rating: 8 g ai/ha
Summary of the method: as §2

[13] = test system: lambsquarters (Chenopodium album); assay: Test B pre-/postemergence plant response; conditions: Preemergence; for Lambsquarters plant response rating: 8 g ai/ha
Summary of the method: as §2

[14] = test system: bermudagrass (Cynodon dactylon); assay: Test B pre-/postemergence plant response; conditions: Preemergence; for Bermudagrass plant response rating: 8 g ai/ha
Summary of the method: as §2

[15] = Flood (flooded paddy test), 62 g ai/ha, scale 0 to 100, 0 no effect, 100 complete control
[16] = Flood (flooded paddy test), 125 g ai/ha, scale 0 to 100, 0 no effect, 100 complete control
[17] = Flood (flooded paddy test), 250 g ai/ha, scale 0 to 100, 0 no effect, 100 complete control
[18] = Flood, 31 g ai/ha, scale 0 to 100
[19] = 16 g ai/ha, scale 0 to 100 (0 no effect, 100 complete control)
[20] = 31 g ai/ha, scale 0 to 100 (0 no effect, 100 complete control)
[21] = 31 g ai/ha, 0 to 100 scale, 0 no effect, 100 complete control
[22] = 62 g ai/ha, 0 to 100 scale, 0 no effect, 100 complete control
[23] = scale 0 to 100 (0 no effect, 100 complete control)

Cc1ccc(-c2ccc(Cl)cc2)cc1-c1c(O)cnn(C)c1=O [Compound 46]
85: Plant response rating, Ducksalad [2, 17] | Plant response rating, Bermudagrass [14, 21]
100: Plant response rating, Ryegrass, Italian ([6]; 62 g ai/ha, scale 0 to 100) | Plant response rating, Crabgrass, Large ([8]; 62 g ai/ha, scale 0 to 100) | Plant response rating, Goosegrass [11, 19] | Plant response rating, Goosegrass [11, 21] | Plant response rating, Goosegrass ([11]; 62 g ai/ha, scale 0 to 100) | Plant response rating, Bermudagrass ([14]; 62 g ai/ha, scale 0 to 100)
10: Plant response rating, Ryegrass, Italian [6, 19]
0: Plant response rating, Barnyardgrass [1, 15] | Plant response rating, Barnyardgrass [1, 18] | Plant response rating, Rice [3, 15] | Plant response rating, Rice [3, 18] | Plant response rating, Ragweed [5, 19] | Plant response rating, Ragweed [5, 20] | Plant response rating, Ragweed ([5]; 62 g ai/ha, scale 0 to 100) | Ragweed plant response rating ([5]; scale 0 to 100) | Ryegrass, Italian plant response rating ([6]; scale 0 to 100) | Plant response rating, Soybean [7, 19] | Plant response rating, Soybean [7, 20] | Plant response rating, Soybean ([7]; 62 g ai/ha, scale 0 to 100) | Soybean plant response rating ([7]; scale 0 to 100) | Plant response rating, Crabgrass, Large [8, 19] | Crabgrass, Large plant response rating ([8]; scale 0 to 100) | Plant response rating, Cocklebur [9, 19] | Plant response rating, Cocklebur [9, 21] | Plant response rating, Cocklebur ([9]; 62 g ai/ha, scale 0 to 100) | Cocklebur plant response rating ([9]; scale 0 to 100) | Plant response rating, Velvetleaf [10, 19] | Plant response rating, Velvetleaf [10, 20] | Plant response rating, Velvetleaf [10, 22] | Velvetleaf plant response rating [10] | Goosegrass plant response rating ([11]; scale 0 to 100) | Plant response rating, Russian Thistle [12, 19] | Plant response rating, Russian Thistle [12, 20] | Plant response rating, Russian Thistle ([12]; 62 g ai/ha, scale 0 to 100) | Russian Thistle plant response rating ([12]; scale 0 to 100) | Plant response rating, Lambsquarters [13, 19] | Plant response rating, Lambsquarters [13, 21] | Plant response rating, Lambsquarters ([13]; 62 g ai/ha, scale 0 to 100) | Lambsquarters plant response rating ([13]; scale 0 to 100) | Bermudagrass plant response rating [14, 23]
40: Plant response rating, Barnyardgrass [1, 17] | Plant response rating, Sedge, Umbrella [4, 18] | Plant response rating, Ryegrass, Italian [6, 20]
50: Plant response rating, Sedge, Umbrella [4, 15]
30: Plant response rating, Barnyardgrass [1, 16] | Plant response rating, Ducksalad [2, 15]
35: Plant response rating, Rice [3, 17]
45: Plant response rating, Ducksalad [2, 16]
20: Plant response rating, Rice [3, 16] | Plant response rating, Bermudagrass [14, 19]
75: Plant response rating, Sedge, Umbrella [4, 17]
60: Plant response rating, Sedge, Umbrella [4, 16] | Plant response rating, Crabgrass, Large [8, 21]

Cc1cc(-c2ccc(Cl)cc2)nn1-c1c(OS(=O)(=O)c2cccc3ccccc23)cnn(C)c1=O [Compound 47]
60: Bermudagrass plant response rating [14, 23]
40: Plant response rating, Russian Thistle ([12]; 62 g ai/ha, scale 0 to 100)
100: Plant response rating, Crabgrass, Large [8, 21] | Plant response rating, Crabgrass, Large ([8]; 62 g ai/ha, scale 0 to 100) | Plant response rating, Goosegrass [11, 21] | Plant response rating, Goosegrass ([11]; 62 g ai/ha, scale 0 to 100) | Plant response rating, Bermudagrass [14, 19] | Plant response rating, Bermudagrass [14, 21] | Plant response rating, Bermudagrass ([14]; 62 g ai/ha, scale 0 to 100)
65: Plant response rating, Lambsquarters ([13]; 62 g ai/ha, scale 0 to 100)
0: Plant response rating, Barnyardgrass [1, 15] | Plant response rating, Barnyardgrass [1, 16] | Plant response rating, Barnyardgrass [1, 17] | Plant response rating, Barnyardgrass [1, 18] | Plant response rating, Ducksalad [2, 15] | Plant response rating, Ducksalad [2, 16] | Plant response rating, Ducksalad [2, 17] | Plant response rating, Ducksalad [2, 18] | Plant response rating, Rice [3, 15] | Plant response rating, Rice [3, 16] | Plant response rating, Rice [3, 17] | Plant response rating, Rice [3, 18] | Plant response rating, Sedge, Umbrella [4, 15] | Plant response rating, Sedge, Umbrella [4, 16] | Plant response rating, Sedge, Umbrella [4, 17] | Plant response rating, Sedge, Umbrella [4, 18] | Plant response rating, Ragweed [5, 19] | Plant response rating, Ragweed [5, 20] | Plant response rating, Ragweed ([5]; 62 g ai/ha, scale 0 to 100) | Ragweed plant response rating ([5]; scale 0 to 100) | Ryegrass, Italian plant response rating ([6]; scale 0 to 100) | Plant response rating, Soybean [7, 19] | Plant response rating, Soybean [7, 20] | Plant response rating, Soybean ([7]; 62 g ai/ha, scale 0 to 100) | Soybean plant response rating ([7]; scale 0 to 100) | Crabgrass, Large plant response rating ([8]; scale 0 to 100) | Plant response rating, Cocklebur [9, 19] | Plant response rating, Cocklebur [9, 21] | Plant response rating, Cocklebur ([9]; 62 g ai/ha, scale 0 to 100) | Cocklebur plant response rating ([9]; scale 0 to 100) | Plant response rating, Velvetleaf [10, 19] | Plant response rating, Velvetleaf [10, 20] | Plant response rating, Velvetleaf [10, 22] | Velvetleaf plant response rating [10] | Plant response rating, Russian Thistle [12, 19] | Plant response rating, Russian Thistle [12, 20] | Russian Thistle plant response rating ([12]; scale 0 to 100) | Plant response rating, Lambsquarters [13, 21] | Lambsquarters plant response rating ([13]; scale 0 to 100)
70: Goosegrass plant response rating ([11]; scale 0 to 100)
90: Plant response rating, Ryegrass, Italian [6, 20]
98: Plant response rating, Ryegrass, Italian ([6]; 62 g ai/ha, scale 0 to 100) | Plant response rating, Goosegrass [11, 19]
85: Plant response rating, Crabgrass, Large [8, 19]
80: Plant response rating, Ryegrass, Italian [6, 19]
